Data taken from US6630500B2, “Selected fused pyrrolocarbazoles” (Cephalon, Inc., priority 2000, dated 2003).

Legend:
Format in all cases: biochemical
[1] = biological target: T1, MLK1 (Homo sapiens, UniProt P80192); experiment: Inhibition of Mixed Lineage Kinase-1 (MLK1) activity; conditions: 60 μM ATP; for IC50: values without % sign; for inhibition at 0.1 µM: 100 nM compound
T1 construct: 1 μg/ml of baculoviral GST-MLK1KD; GST (N); made in house
Description: The kinase activity of MLK1 was assessed using the Millipore Multiscreen TCA “in-plate” format as described for protein kinase C (Pitt & Lee, J. Biomol. Screening, 1: 47-51, 1996). Briefly, each 50-μl assay mixture contained 20 mM Hepes, pH 7.2, 5 mM EGTA, 15 mM MgCl2, 25 mM β-glycerophosphate, 60 μM ATP, 0.25 μCi [γ-^32P]ATP, 0.1% BSA, 500 μ/ml myelin basic protein (UBI #13-104), 2% DMSO, […], and 1 μg/ml of baculoviral GST-MLK1KD. Samples were incubated for 15 min at 37° C. The reaction was stopped by adding ice cold 50% TCA and the proteins were allowed to precipitate for 30 min at 4° C. The plates were then washed with ice cold 25% TCA. Supermix scintillation cocktail was added, and the plates were allowed to equilibrate for 1-2 hours prior to counting using the Wallac MicroBeta 1450 PLUS scintillation counter.

[2] = biological target: T2, VEGF receptor (human flk-1, KDR, VEGFR2) kinase domain (Homo sapiens, UniProt P35968); experiment: Inhibition of VEGF receptor kinase activity (ELISA); conditions: 40 μM ATP; for inhibition at 0.3 µM: 300 nM compound, read-out: VEGFR2 % inh. @ 300 nM; for IC50: values without % sign
T2 construct: VEGF receptor (human flk-1, KDR, VEGFR2) kinase domain; made in house
Description: Fused pyrrolocarbazole compounds were examined for their inhibitory effects on the kinase activity of baculovirus-expressed VEGF receptor (human flk-1, KDR, VEGFR2) kinase domain using the procedure described for the trkA kinase ELISA assay described below. The kinase reaction mixture, consisting of 50 mM Hepes, pH 7.4, 40 μM ATP, 10 mM MnCl2, 0.1% BSA, 2% DMSO, and various concentrations of inhibitor, was transferred to PLC-γ/GST-coated plates. VEGFR kinase was added and the reaction was allowed to proceed for 15 min. at 37° C. Detection of phosphorylated product was accomplished by addition of anti-phosphotyrosine antibody (UBI). A secondary enzyme-conjugated antibody was delivered to capture the antibody-phosphorylated PLC-γ/GST complex. The activity of the bound enzyme was measured via an amplified detection system (Gibco-BRL). Inhibition data were analyzed using the sigmoidal dose-response (variable slope) equation in GraphPad Prism.
Selected isomeric fused pyrrolocarbazole and isoindolone compounds can be tested for their ability to inhibit the kinase activity of baculovirus-expressed human trkA cytoplasmic domain using an ELISA-based assay as previously described (Angeles et al., Anal. Biochem. 236: 49-55, 1996). Briefly, the 96-well microtiter plate is coated with substrate solution (recombinant human phospholipase C-γl/glutathione S-transferase fusion protein (Rotin et al., EMBO J., 11: 559-567, 1992). Inhibition studies are performed in 100 μl assay mixtures containing 50 mM Hepes, pH 7.4, 40 μM ATP, 10 mM MnCl2, 0.1% BSA, 2% DMSO, and various concentrations of inhibitor. The reaction is initiated by addition of trkA kinase and allowed to proceed for 15 minutes at 37° C. An antibody to phosphotyrosine (UBI) is then added, followed by a secondary enzyme-conjugated antibody, alkaline phosphatase-labelled goat anti-mouse IgG (Bio-Rad). The activity of the bound enzyme is measured via an amplified detection system (Gibco-BRL). Inhibition data are analyzed using the sigmoidal dose-response (variable slope) equation in GraphPad Prism.

[3] = biological target: T3, MLK3 (Homo sapiens, UniProt Q16584); experiment: Inhibition of Mixed Lineage Kinase-3 (MLK3) activity; conditions: 100 μM ATP; for inhibition at 0.1 µM: 100 nM compound; for IC50: values without % sign
T3 construct: 2 μg/ml of baculoviral GST-MLK3KD; GST (N); made in house
Description: (§1) The kinase activity of MLK1 was assessed using the Millipore Multiscreen TCA “in-plate” format as described for protein kinase C (Pitt & Lee, J. Biomol. Screening, 1: 47-51, 1996). Briefly, each 50-μl assay mixture contained 20 mM Hepes, pH 7.2, 5 mM EGTA, 15 mM MgCl2, 25 mM β-glycerophosphate, 60 μM ATP, 0.25 μCi [γ-^32P]ATP, 0.1% BSA, 500 μ/ml myelin basic protein (UBI #13-104), 2% DMSO, 1 μM of test compound, and 1 μg/ml of baculoviral GST-MLK1KD. Samples were incubated for 15 min at 37° C. The reaction was stopped by adding ice cold 50% TCA and the proteins were allowed to precipitate for 30 min at 4° C. The plates were then washed with ice cold 25% TCA. Supermix scintillation cocktail was added, and the plates were allowed to equilibrate for 1-2 hours prior to counting using the Wallac MicroBeta 1450 PLUS scintillation counter.
(§2) Assays were performed using the Millipore Multiscreen plate format as described for MLK1. Briefly, each 50-μl assay mixture contained 20 mM Hepes, pH 7.2, 5 mM EGTA, 15 mM MgCl2, 25 mM β-glycerophosphate, 100 μM ATP, 0.25 μCi [γ-^32P]ATP, 0.1% BSA, 500 μg/ml myelin basic protein (UBI #13-104), 2% DMSO, various concentrations of test compound, and 2 μg/ml of baculoviral GST-MLK3KD. Sample were incubated for 15 min at 37° C. The reaction was stopped by adding ice cold 50% TCA and the proteins were allowed to precipitate for 30 min at 4° C. The plates were then washed with ice cold 25% TCA. Supermix scintillation cocktail was added, and the plates were allowed to equilibrate for 1-2 hours prior to counting.

[4] = biological target: T4, MLK2 (Homo sapiens, UniProt Q02779); experiment: Inhibition of Mixed Lineage Kinase-2 (MLK2) activity; conditions: 100 nM compound; 100 μM ATP
T4 construct: fused on or other part: GST tag
Description: as §1
as §2, with “MLK1. Each” for “MLK1. Briefly, each”, “and 3” for “and 2”, “baculoviral GST-MLK2KDLZ. Samples” for “baculoviral GST-MLK3KD. Sample”, “15 min.” for “15 min”

T3 sequence (Q16584 117-379 limits assumed, species assumed): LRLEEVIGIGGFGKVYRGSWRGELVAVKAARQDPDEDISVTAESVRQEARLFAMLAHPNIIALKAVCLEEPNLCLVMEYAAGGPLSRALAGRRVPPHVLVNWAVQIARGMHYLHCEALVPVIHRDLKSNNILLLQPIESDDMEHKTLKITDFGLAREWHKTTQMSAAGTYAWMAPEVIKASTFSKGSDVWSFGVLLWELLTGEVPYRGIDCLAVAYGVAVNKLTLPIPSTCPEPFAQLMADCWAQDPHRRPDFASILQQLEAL
T1 sequence (P80192 144-412 limits assumed, species assumed): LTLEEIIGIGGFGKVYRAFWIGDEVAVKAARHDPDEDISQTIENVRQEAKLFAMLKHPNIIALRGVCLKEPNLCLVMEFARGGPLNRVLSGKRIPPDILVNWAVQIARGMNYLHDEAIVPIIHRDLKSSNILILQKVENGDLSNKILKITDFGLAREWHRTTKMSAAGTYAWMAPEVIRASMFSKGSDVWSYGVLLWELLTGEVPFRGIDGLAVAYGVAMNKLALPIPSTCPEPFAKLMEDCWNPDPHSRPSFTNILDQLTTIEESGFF
T2 sequence (P35968 834-1162 limits assumed): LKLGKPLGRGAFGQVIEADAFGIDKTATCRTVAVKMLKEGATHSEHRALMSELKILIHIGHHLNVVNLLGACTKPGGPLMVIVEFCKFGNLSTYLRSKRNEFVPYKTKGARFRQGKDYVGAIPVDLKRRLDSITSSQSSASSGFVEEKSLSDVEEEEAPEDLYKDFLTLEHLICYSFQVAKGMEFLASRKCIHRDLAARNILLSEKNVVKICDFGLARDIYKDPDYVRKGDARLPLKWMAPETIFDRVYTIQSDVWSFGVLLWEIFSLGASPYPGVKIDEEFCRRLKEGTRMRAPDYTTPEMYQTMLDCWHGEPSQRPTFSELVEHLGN
T4 sequence (Q02779 98-440 limits assumed): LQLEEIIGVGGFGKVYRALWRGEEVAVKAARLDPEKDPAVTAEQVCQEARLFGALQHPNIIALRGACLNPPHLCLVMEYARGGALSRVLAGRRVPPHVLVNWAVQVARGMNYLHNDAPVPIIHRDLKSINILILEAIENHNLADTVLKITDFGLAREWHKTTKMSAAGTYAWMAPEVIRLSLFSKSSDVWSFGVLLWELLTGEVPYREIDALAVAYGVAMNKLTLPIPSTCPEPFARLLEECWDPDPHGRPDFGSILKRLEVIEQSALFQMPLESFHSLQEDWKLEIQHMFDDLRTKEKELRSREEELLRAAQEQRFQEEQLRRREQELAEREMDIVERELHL

Row | SMILES | IC50 [1] | inhibition at 0.3 µM [2] | inhibition at 0.1 µM [3] | IC50 [2] | IC50 [3] | inhibition at 0.1 µM [1] | inhibition at 0.1 µM [4]
1 | COC(C)c1ccc2[nH]c3c4c(c5c(c3c2c1)CNC5=O)-c1ccccc1C4 (racemic) [Compound 36] | 0.026 µM | 12% | 41% | – | – | – | –
2 | CCOCc1ccc2[nH]c3c4c(c5c(c3c2c1)CNC5=O)-c1ccccc1C4C(C)O (single isomer, unassigned) [Compound 14] | – | – | – | 0.072 µM | 0.009 µM | 93% | –
3 | CCOCc1ccc2c(c1)c1c3c(c4c(c1n2CC(C)O)Cc1ccccc1-4)C(=O)NC3 (stereo not shown) [Compound 7] | – | – | – | 0.025 µM | 0.03 µM | 85% | –
4 | CCCCOCc1ccc2c(c1)c1c3c(c4c(c1n2CCCO)Cc1ccccc1-4)C(=O)NC3 [Compound 9] | 0.026 µM | – | – | 0.018 µM | 0.015 µM | – | –
5 | CCCCOC(C)c1ccc2c(c1)c1c3c(c4c(c1n2CCCO)Cc1ccccc1-4)C(=O)NC3 (stereo not shown) [Compound 15] | 0.041 µM | – | – | 0.13 µM | 0.027 µM | – | –
6 | CC(C)OCc1ccc2c(c1)c1c3c(c4c(c1n2CCCOC(=O)CN)Cc1ccccc1-4)C(=O)NC3 [Compound 18] | 0.047 µM | – | – | 0.023 µM | 0.023 µM | – | –
7 | CC(C)OCc1ccc2c(c1)c1c3c(c4c(c1n2CCCOC(=O)C(N)CCCCN)Cc1ccccc1-4)C(=O)NC3 (stereo not shown) [Compound 19] | – | 60% | – | – | – | 44% | 28%
8 | CC(C)OCc1ccc2c(c1)c1c3c(c4c(c1n2CCCOC(=O)CCCN(C)C)Cc1ccccc1-4)C(=O)NC3 [Compound 21] | – | 48% | – | – | – | 40% | –
9 | CC(C)OCc1ccc2c(c1)c1c3c(c4c(c1n2CCCOC(=O)CCCCCN)Cc1ccccc1-4)C(=O)NC3 [Compound 23] | – | 57% | – | – | – | 31% | –
10 | O=C1NCc2c1c1c(c3c2c2cc(CO)ccc2n3CCO)Cc2ccccc2-1 [Compound 28] | 0.076 µM | 34% | – | – | 0.074 µM | – | –
11 | O=C1NCc2c1c1c(c3[nH]c4ccc(CO)cc4c23)Cc2ccccc2-1 [Compound 30] | 0.03 µM | – | – | 0.302 µM | – | – | –
12 | CCOCc1ccc2[nH]c3c4c(c5c(c3c2c1)CNC5=O)-c1ccccc1C4 [Compound 31] | 0.046 µM | – | – | 0.077 µM | 0.029 µM | – | –
13 | CC(C)OCc1ccc2[nH]c3c4c(c5c(c3c2c1)CNC5=O)-c1ccccc1C4 [Compound 32] | 0.024 µM | 33% | – | – | 0.019 µM | – | –
14 | CCC(O)c1ccc2c(c1)c1c3c(c4c(c1n2CCCO)Cc1ccccc1-4)C(=O)NC3 (stereo not shown) [Compound 34] | – | – | 32% | 0.007 µM | – | 45% | –
15 | CC(O)c1ccc2[nH]c3c4c(c5c(c3c2c1)CNC5=O)-c1ccccc1C4 (stereo not shown) [Compound 35] | – | 37% | 62% | – | – | 60% | –
16 | CCCSCc1ccc2c(c1)c1c3c(c4c(c1n2CCCOC(=O)C(F)(F)F)Cc1ccccc1-4)C(=O)NC3 [Compound 37] | 0.017 µM | 37% | – | – | – | – | –
17 | O=C1NCc2c1c1c(c3c2c2cc(CSc4ccccn4)ccc2n3CCCO)Cc2ccccc2-1 [Compound 38] | – | 45% | – | – | 0.03 µM | 58% | –
18 | O=C1NCc2c1c1c(c3c2c2cc(CSc4ncccn4)ccc2n3CCCO)Cc2ccccc2-1 [Compound 39] | – | 13% | 56% | – | – | 55% | –
19 | COc1ccc2[nH]c3c4c(c5c(c3c2c1)CNC5=O)-c1ccccc1C4 [D, reference compound] | 0.045 µM | – | 43% | 0.2 µM | – | – | –

Other lines, results leading:

Row | IC50 [1] | inhibition at 0.3 µM [2] | inhibition at 0.1 µM [3] | IC50 [2] | IC50 [3] | inhibition at 0.1 µM [1] | inhibition at 0.1 µM [4] | SMILES
20 | 0.078 µM | – | – | 0.065 µM | 0.02 µM | – | – | CCOC(C)c1ccc2c(c1)c1c3c(c4c(c1n2CCCO)Cc1ccccc1-4)C(=O)NC3 (single isomer, unassigned) [Compound 11]
21 | 0.021 µM | – | – | 0.004 µM | 0.004 µM | – | – | CCOCc1ccc2c(c1)c1c3c(c4c(c1n2CCCO)Cc1ccccc1-4)C(=O)NC3 [Compound 1]
22 | 0.015 µM | – | – | 0.017 µM | 0.008 µM | – | – | COCc1ccc2c(c1)c1c3c(c4c(c1n2CCCO)Cc1ccccc1-4)C(=O)NC3 [Compound 2]
23 | 0.017 µM | – | – | 0.007 µM | 0.009 µM | – | – | CC(C)OCc1ccc2c(c1)c1c3c(c4c(c1n2CCCO)Cc1ccccc1-4)C(=O)NC3 [Compound 3]
24 | 0.015 µM | – | – | 0.012 µM | 0.004 µM | – | – | CCC(C)OCc1ccc2c(c1)c1c3c(c4c(c1n2CCCO)Cc1ccccc1-4)C(=O)NC3 (stereo not shown) [Compound 4]
25 | 0.037 µM | – | – | 0.083 µM | 0.015 µM | – | – | CCOC(C)c1ccc2c(c1)c1c3c(c4c(c1n2CCCO)Cc1ccccc1-4)C(=O)NC3 (stereo not shown) [Compound 10]
26 | – | – | 49% | 0.411 µM | – | 66% | – | CC(C)OC(C)c1ccc2c(c1)c1c3c(c4c(c1n2CCCO)Cc1ccccc1-4)C(=O)NC3 (stereo not shown) [Compound 16]
27 | 0.035 µM | – | – | 0.011 µM | – | – | 50% | CC(C)(C)OCc1ccc2c(c1)c1c3c(c4c(c1n2CCCO)Cc1ccccc1-4)C(=O)NC3 [Compound 17]
28 | – | 31% | 55% | – | – | 62% | – | CCSCc1ccc2c(c1)c1c3c(c4c(c1n2CCO)Cc1ccccc1-4)C(=O)NC3 [Compound 24]
29 | 0.022 µM | – | – | 0.021 µM | 0.012 µM | – | – | CCSCc1ccc2c(c1)c1c3c(c4c(c1n2CCCO)Cc1ccccc1-4)C(=O)NC3 [Compound 25]
30 | 0.022 µM | – | – | 0.057 µM | – | – | – | CC(C)SCc1ccc2c(c1)c1c3c(c4c(c1n2CCCO)Cc1ccccc1-4)C(=O)NC3 [Compound 27]
31 | 0.05 µM | – | – | 0.111 µM | 0.016 µM | – | – | CC(O)c1ccc2c(c1)c1c3c(c4c(c1n2CCCO)Cc1ccccc1-4)C(=O)NC3 (stereo not shown) [Compound 33]
